{
  "source": "patent US20050171424A1",
  "about": "“Methods for imaging the lymphatic system using dendrimer-based contrast agents” (The Gov. of the USA as rep. by the Secretary of the Dept. …, priority 2004, published 2005)",
  "key": {"[1]": {"system": "deep lymph nodes, thoracic duct and lymphatic vessels", "assay": "Whole-body 3D-micro-MR lymphangiography of normal mice, PAMAM-G8 versus GPDM (Example 3)", "format": "in vivo", "procedure": "(§1) The mice were anesthetized with 1.15 mg sodium pentobarbital (Dainabot, Osaka, Japan) i.p., and then injected intracutaneously with 0.1 μmolGd of PAMAM-G8, DAB-G5, PAMAM-G4, Gadomer-17, or GPDM into four middle phalanges in all four extremities. Dynamic micro-MR images were obtained using a 1.5-Tesla superconductive magnet unit (Signa LX, General Electric Medical System, Milwaukee, Wis.) with a round birdcage type coil of 3 cm diameter fixed by a custom-made coil holder. Four to eight female mice (7 weeks old, 18-21 g body weight) in each group were used and each contrast agent was prepared at least three separate times for these imaging studies. The mice were wrapped with gauze to stabilize their body temperature and were placed at the center of the coils.\n(§2) A 3D-fast spoiled gradient echo [3D-fastSPGR (efgre3d package; Signa Horizon, GE); repetition time/echo time 28.5/7.9 msec; inversion time 65 msec; 31.2 kHz, flip angle 30°, four excitations; 40 slice-encoding steps; scan time 7 min 36 seconds] with chemical shift fat-suppression was used 10, 20, 30, and 45 min after injection of the contrast agents. The coronal images were reconstructed with 0.6-mm section thickness at every 0.3-mm. The FOV was 6×3 cm and the size of the matrix was 512×256. The intensities of the regions of interest (ROIs) (for example, a whole axillary lymph node, and the liver) were measured, and then the time-intensity curves analyzed. The data were expressed as the axillary lymph node-to-muscle and the axillary lymph node-to-liver ratios. The slice data were processed into 3D images using the MIP method with the same window and level (window 3500 and level 2300) (Advantage Windows, General Electric Medical System). Two board-certified radiologists separately read a set of stereo views of 3D-MRL for all studies, and estimated the visualization of the thoracic duct. After imaging, the mice were sacrificed by carbon dioxide inhalation.\n(§3) In this example, the PAMAM-G8 contrast agent is compared to GPDM. PAMAM-G8 was prepared as described in Example 2, and GPDM was purchased (Schering AG, Berlin, Germany). Animal models, administration of the contrast agents, and 3D-micro-MRL were as described in Example 2."}, "[2]": {"system": "lymph nodes and lymphatic vessels of IL-15 transgenic mice", "assay": "3D-micro-MRL in IL-15 transgenic lymphoproliferative/neoplastic disease model", "format": "in vivo", "conditions": "45 minutes after injection", "procedure": "Eight- to 10-month old IL-15 transgenic mice (on a C57BL6 background) were used as a chronic lymphoproliferative/neoplastic disease model because they manifested selective expansion of NK, CD8^+NK-T, γδIELs, and CD8 T cells in the periphery. Most of the lymph nodes collected from an aged IL-15 transgenic mouse were enlarged in size. The lesion of proliferated monoclonal lymphocytes often involved the lung and the subcutaneous lymphatic tissue.\nas §1\nas §2, with “The FOV was 6×3 cm and the size of the matrix was 512×256.” left out, “The slice data were processed into 3D images using the MIP method with the same window and level (window 3500 and level 2300) (Advantage Windows, General Electric Medical System).” left out, “After imaging, the mice were sacrificed by carbon dioxide inhalation.” left out"}, "[3]": {"system": "external iliac lymph nodes in infection model", "assay": "3D-micro-MRL of nude mice with spontaneous oral ulcers and urinary tract infections", "format": "in vivo", "conditions": "45 minutes after injection, FIG. 16B", "procedure": "as §3\nNude mice that develop spontaneous oral ulcers and urinary tract infections also were examined."}, "deep lymphatic system": {"system": "deep lymphatic system", "assay": "Whole-body dynamic 3D-micro-MR lymphangiography of normal mice (Example 2)", "format": "in vivo", "conditions": "for Number of Mice in Which the Thoracic Duct was Visualized/Number of Mice Examined: Normal Mice, 0.1 μmolGd intracutaneously into four middle phalanges", "procedure": "as §1, §2\nStatistical analyses were performed using either Student's t-test or a one-way analysis of variance (ANOVA), with a pairwise comparison using the Bonferroni method for signal intensity curves (Statview; SAS Institute Inc., Cary, N.C.)."}, "[4]": {"assay": "Distribution and survival properties of the dendrimer conjugates", "conditions": "in vivo"}, "[5]": {"system": "lymphatic vessels in Concanavalin A lymphangitis", "assay": "3D-micro-MRL in Concanavalin A lymphangitis model", "format": "in vivo, C57BL6 mice", "conditions": "FIGS. 10, 14A", "procedure": "To generate a lymphangitis model, Concanavalin A ([…]) (Sigma, St. Louis, Mo.) was injected intravenously into C57BL6 mice (NCI, Frederick, Md.) 24 hours before MRI was performed.\nThe mice were anesthetized with 1.15 mg sodium pentobarbital (Dainabot, Osaka, Japan) i.p., and then injected intracutaneously with 0.1 μmolGd of PAMAM-G8, DAB-G5, PAMAM-G4, Gadomer-17, or GPDM into four middle phalanges in all four extremities. Dynamic micro-MR images were obtained using a 1.5-Tesla superconductive magnet unit (Signa LX, General Electric Medical System, Milwaukee, Wis.) with a round birdcage type coil of 3 cm diameter fixed by a custom-made coil holder. […]\nA 3D-fast spoiled gradient echo [3D-fastSPGR (efgre3d package; Signa Horizon, GE); repetition time/echo time 28.5/7.9 msec; inversion time 65 msec; 31.2 kHz, flip angle 30°, four excitations; 40 slice-encoding steps; scan time 7 min 36 seconds] with chemical shift fat-suppression was used 10, 20, 30, and 45 min after injection of the contrast agents. […] The intensities of the regions of interest (ROIs) (for example, a whole axillary lymph node, and the liver) were measured, and then the time-intensity curves analyzed. The data were expressed as the axillary lymph node-to-muscle and the axillary lymph node-to-liver ratios. […]"}, "[6]": {"system": "lymph nodes infiltrated with MC-38 colorectal cancer cells", "assay": "3D-MRL in MC38 colorectal cancer lymph node metastasis model", "format": "in vivo, C57BL6 mice", "procedure": "In addition, 10-week-old C57BL6 mice (NCI, Frederick, Md.) bearing lymph node metastases of MC38 colorectal cancer cells following either intravenous or subcutaneous injection were used as a mouse model manifesting lymph node metastasis.\nThe mice were anesthetized with 1.15 mg sodium pentobarbital (Dainabot, Osaka, Japan) i.p., and then injected intracutaneously with 0.1 μmolGd of PAMAM-G8, DAB-G5, PAMAM-G4, Gadomer-17, or GPDM into four middle phalanges in all four extremities. […]\nA 3D-fast spoiled gradient echo [3D-fastSPGR (efgre3d package; Signa Horizon, GE); repetition time/echo time 28.5/7.9 msec; inversion time 65 msec; 31.2 kHz, flip angle 30°, four excitations; 40 slice-encoding steps; scan time 7 min 36 seconds] with chemical shift fat-suppression was used 10, 20, 30, and 45 min after injection of the contrast agents. […] The intensities of the regions of interest (ROIs) (for example, a whole axillary lymph node, and the liver) were measured, and then the time-intensity curves analyzed. The data were expressed as the axillary lymph node-to-muscle and the axillary lymph node-to-liver ratios. […] Two board-certified radiologists separately read a set of stereo views of 3D-MRL for all studies, and estimated the visualization of the thoracic duct. […]"}},
  "note": "Entries after “also recorded” stand apart in the source; their conditions may differ.",
  "data": [
    {"substance": "PAMAM-G7D-(Gd-1B4M)1024 dendrimer conjugate [PAMAM-G8]", "values": [
      {"measurement": "Visualization of other lymphatic vessels", "setting": "[1]", "result": "better visualized with PAMAM-G8 than with GPDM"},
      {"measurement": "Visualization of deep lymph nodes throughout the body", "setting": "[1]; intracutaneous injection, 0.05 mmolGd/kg (FIG. 13)", "result": "most deep lymph nodes throughout the body were visualized"},
      {"measurement": "Visualization of the thoracic duct", "setting": "[1]; intracutaneous injection, FIG. 13", "result": "visualized in all six mice"},
      {"measurement": "Visualization of dilation of lymphatic vessels", "setting": "[2]; FIG. 11", "result": "best visualized with PAMAM-G8"},
      {"measurement": "Lymph node findings on 3D-micro-MRL", "setting": "[2]; FIGS. 11, 15A", "result": "considerable multiple lymph node swellings with central filling defects; also recorded: enlargement and a lack of enhancement within several of the lymph nodes"},
      {"measurement": "Lymph node findings in infection model", "setting": "[3]", "result": "irregular dilation of the lymphatic vessels in the lymph nodes"},
      {"measurement": "Number of Mice in Which the Thoracic Duct was Visualized/Number of Mice Examined", "setting": "deep lymphatic system; 10 min", "result": "10/10"},
      {"measurement": "Number of Mice in Which the Thoracic Duct was Visualized/Number of Mice Examined", "setting": "deep lymphatic system; 20 min", "result": "10/10"},
      {"measurement": "Number of Mice in Which the Thoracic Duct was Visualized/Number of Mice Examined", "setting": "deep lymphatic system; 30 min", "result": "10/10"},
      {"measurement": "Number of Mice in Which the Thoracic Duct was Visualized/Number of Mice Examined", "setting": "deep lymphatic system; 45 min", "result": "10/10"},
      {"measurement": "Axillary lymph node-to-background (muscle) signal intensity ratio, comparison between agents", "setting": "deep lymphatic system; T1-weighted signal, all time points examined, P<0.01, FIG. 9A", "result": "significantly higher than that measured with Gadomer-17 and GPDM"},
      {"measurement": "Axillary lymph node-to-liver signal intensity ratio, comparison between agents", "setting": "deep lymphatic system; all time points examined, P<0.01, FIG. 9B", "result": "nearly equivalent, but were significantly higher than that measured with GPDM"},
      {"measurement": "Visualization of the lymphatic vessels, comparison between agents", "setting": "deep lymphatic system; normal mice", "result": "better visualized with PAMAM-G8 compared to all other agents examined"},
      {"measurement": "Visualization of the deep lymph nodes", "setting": "deep lymphatic system; normal mice, 10 to 45 min after intracutaneous injection, FIGS. 7, 8", "result": "enabled most of the deep lymph nodes to be visualized"},
      {"measurement": "Visualization by a radiologist of the thoracic duct", "setting": "deep lymphatic system; normal mice, all times after administration", "result": "in all mice at all times after administration"},
      {"measurement": "Distribution within the lymphatic system", "setting": "[4]", "result": "lymphotropic behavior (accumulation in the lymph system) and minimal leakage out of the lymphatic vessels"},
      {"measurement": "Detection of dilation of the lymphatic vessels", "setting": "[5]", "result": "demonstrated the remarkable dilation of the lymphatic vessels throughout the body, especially in the liver; also recorded: able to detect remarkable dilation of lymphatic vessels"},
      {"measurement": "Findings on 3D-MRL in mouse with lymph node metastasis", "setting": "[6]; 45 minutes after injection, FIG. 12 left image", "result": "dilated lymphatic vessels surrounding the tumor and a collateral lymphatic vessel"},
      {"measurement": "Findings on 3D-MRL in mice with subcutaneously xenografted MC-38 tumor", "setting": "[6]; FIG. 12 right image", "result": "did not show any abnormalities in either the lymph nodes or the lymphatic vessels"}
    ]}
  ]
}
